Experiment: xn = mol fraction of the nth substance listed
Conditions: 100 kPa

O + CC(N)C(=O)[O-].CCCC[n+]1ccn(C)c1C
x2 = 0
Conditions | viscosity [mPa·s]
288.15 K | 1.17
293.15 K | 1.03
303.15 K | 0.82
308.15 K | 0.74

O + CCCC[n+]1ccn(C)c1C.NCC(=O)[O-]
x2 = 0
Conditions | viscosity [mPa·s]
288.15 K | 1.17
293.15 K | 1.03
298.15 K | 0.91
303.15 K | 0.82
318.15 K | 0.61

O + N[C@@H]([C@H](O)C)C(=O)[O-].C(CCC)N1C(=[N+](C=C1)C)C
x2 = 0
Conditions | viscosity [mPa·s]
288.15 K | 1.17
298.15 K | 0.91
303.15 K | 0.82
308.15 K | 0.74
318.15 K | 0.61

CC(N)C(=O)[O-].CCCC[n+]1ccn(C)c1C + O
viscosity [mPa·s]
Conditions | x1 = 0.1003 | x1 = 0.2012 | x1 = 0.3009 | x1 = 0.4014 | x1 = 0.4938 | x1 = 0.5975 | x1 = 0.6987 | x1 = 0.7945 | x1 = 0.8965 | x1 = 1
288.15 K | 28.4 | 52 | 86 | 127 | 168 | 215 | 270 | 336 | 429 | 520
293.15 K | – | 40 | 64 | 95 | 126 | 161 | – | 244 | 307 | –
298.15 K | 17.1 | 30.5 | 48.9 | 72 | 96 | 123 | 151 | 183 | 226 | 268
303.15 K | 12.8 | 23.3 | 36.8 | 54 | 72 | 92 | 113 | 136 | 165 | 192
308.15 K | 10.6 | 19 | 30 | 44 | 58 | 75 | 92 | 110 | 131 | 150
313.15 K | 8.1 | 14.7 | 23 | 33.5 | 44.2 | 57 | – | 82 | 97 | 110
318.15 K | 6.7 | 12.1 | – | 27.5 | 36.3 | 46.7 | 57 | 67 | 77 | –

CCCC[n+]1ccn(C)c1C.NCC(=O)[O-] + O
viscosity [mPa·s]
Conditions | x1 = 0.0999 | x1 = 0.1982 | x1 = 0.3003 | x1 = 0.3904 | x1 = 0.4786 | x1 = 0.6 | x1 = 0.6999 | x1 = 0.798 | x1 = 0.9001 | x1 = 1
288.15 K | 25.2 | 40.3 | 63 | 92 | 125 | 180 | 232 | 298 | 390 | 480
293.15 K | 18.2 | 29.1 | 45.4 | – | 90 | 129 | 163 | 205 | 257 | 318
298.15 K | – | – | – | 49.1 | 67 | – | – | – | 178 | 218
303.15 K | 10.4 | 17.3 | 26.7 | 37.7 | 51 | 71 | 88 | 105 | – | 152
308.15 K | – | 13.1 | – | – | 38.3 | 53 | – | 77 | 90 | 109
313.15 K | 6.3 | 10.8 | 16.6 | – | 31.2 | 43.1 | 53 | 62 | – | 84
318.15 K | 5.7 | 9.6 | 14.7 | 20.5 | 27.5 | 38.1 | – | – | 61 | 72

CCCCn1cc[n+](C)c1C.C[C@@H](O)[C@H](N)C(=O)[O-] + O
viscosity [mPa·s]
Conditions | x1 = 0.0998 | x1 = 0.1919 | x1 = 0.2985 | x1 = 0.4004 | x1 = 0.4927 | x1 = 0.599 | x1 = 0.7003 | x1 = 0.8001 | x1 = 0.9012 | x1 = 1
288.15 K | 57 | 84 | 141 | 228 | – | 470 | 650 | 880 | 1181 | 1472
293.15 K | 40.4 | 61 | – | 164 | 236 | 331 | – | 600 | 780 | 960
298.15 K | 28.7 | 44 | 73 | 115 | 164 | 231 | – | – | 510 | 610
303.15 K | 18.1 | 28.7 | 47.4 | 74 | 105 | 145 | 191 | 245 | 310 | 363
308.15 K | 15.6 | – | 40.6 | – | 89 | – | 159 | – | 245 | 285
313.15 K | 9.8 | 15.8 | – | 40.6 | 57 | – | 100 | 122 | 145 | 167
318.15 K | 8 | 13.1 | – | – | – | 62 | – | – | 107 | 125
